Reference: patent publication EP0054589B1, “Organic phosphoric acid ester derivatives, a process for preparing the same and insecticidal, miticidal or nematocidal compositions containing the same” (priority 1980, dated 1982)
Read-outs that look alike come from different tables or passages of the source.

Columns and labels:
rice stem borer = experiment: Insecticidal effect on rice stem borer, 3rd-instar larvae (rice seedling dip); assay type: in vivo, Chilo suppressalis; settings: after 72 hours, 25°C
Method: (A) A wettable powder prepared as described in Formulation Example 5 was diluted with water to a predetermined concentration. Rice seedlings were dipped into the dilute solution and placed in a 60 ml volume cup made of vinyl chloride resin, and 10 3rd-instar larvae of rice stem borer were put in each cup. The cups were capped and maintained at 25°C.
(B) A wettable powder prepared as described in Formulation Example 7 was diluted with water to a predetermined concentration. Rice seedlings were dipped into the dilute solution and placed in a 60 ml volume cup made of vinyl chloride resin, and 10 3rd-instar larvae of rice stem borer were put in each cup. The cups were capped and maintained at 25°C.

tobacco cutworm = experiment: Insecticidal effect on tobacco cutworm (cabbage leaf dip); assay type: in vivo, Prodenia litura; settings: after 48 hours, 25°C
Method: (A) An emulsifiable concentrate prepared as described in Formulation Example 1 was diluted with water to a predetermined concentration and then cabbage leaves were dipped into the dilute solution and dried in air and placed in a 60 ml volume cup made of vinyl chloride resin. 3rd-instar larvae of tobacco cutworm were put in each cup and maintained at 25°C. After 48 hours, percent mortality was assessed. The test was replicated 3 times for each compound using 30 insects in each test.
(B) An emulsifiable concentrate prepared as described in Formulation Example 3 was diluted with water to a predetermined concentration and then cabbage leaves were dipped into the dilute solution and dried in air and placed in a 60 ml volume cup made of vinyl chloride resin. 3rd-instar larvae of tobacco cutworm were put in each cup and maintained at 25°C. After 48 hours, percent mortality was assessed. The test was replicated 3 times for each compound using 30 insects in each test.

diamond back moth = experiment: Insecticidal effect on diamond-back moth (cabbage leaf dip); assay type: in vivo, Plutella xylostella; settings: after 72 hours, 25°C
Method: (A) An emulsifiable concentrate prepared as described in Formulation Example 1 was diluted with water to a predetermined concentration and leaves of a cabbage were dipped into the dilute emulsion for 10 seconds followed by drying in air, and charged in a 60 ml volume cup made of vinyl chloride resin. Then, thirty 3rd-instar larvae of diamond back moth were put in each cup, and the cups were kept at 25°C. After 72 hours, percent mortality was assessed and the test was replicated 3 times for each treatment.
(B) An emulsifiable concentrate prepared as described in Formulation Example 4 was diluted with water to a predetermined concentration and leaves of a cabbage were dipped into the dilute emulsion for 10 seconds followed by drying in air, and charged in a 60 ml volume cup made of vinyl chloride resin. Then, thirty 3rd-instar larvae of diamond back moth were put in each cup, and the cups were kept at 25°C. After 72 hours, percent mortality was assessed and the test was replicated 3 times for each treatment.

carmine mites = experiment: Miticidal effect on carmine mite (sprayed kidney bean seedling); assay type: in vivo, Tetranychus cinnabarius; settings: 500 ppm
Method: An emulsifiable concentrate prepared as described in Formulation Example 1 and diluted to a predetermined concentration was sprayed using a spray-gun on a seedling of a kidney bean placed in a pot of 12 cm in diameter to which plant carmine mites were parasitic. After drying in air, seedlings were kept in a green house, and the number of living insects was recorded on the 7th, 14th, 21st and 28th day from the day of application to determine the control effects. Three pots were used for each treatment. The control effect was assessed by the following formula: [formula] • wherein Σ indicates sum and Cb, Tb, Cai and Tai have the following meanings. • Cb: Number of living mites in non-treated sample before application. • Tb: Number of living mites in treated sample before application. • Cai: Number of living mites in non-treated sample 7th, 14th, 21 st or 28th day from the application. • Tai: Number of living mites in treated sample 7th, 14th, 21st or 28th day from the application.

[1] = system: carmine mites resistant to Kelthane; experiment: Miticidal effect on carmine mite resistant to Kelthane (sprayed egg plant seedling); assay type: in vivo, Tetranychus cinnabarius; settings: Table 13, 500 ppm
Method: (§1) (A) An emulsifiable concentrate prepared as described in Formulation Example 1 and diluted to a predetermined concentration was sprayed using a spray-gun on a seedling of an egg plant placed in a pot of 12 cm in diametre to which plant carmine mites resistant to Kelthane were parasitic. After drying in air, seedlings were kept in a green house, and the number of living insects was recorded on the 7th, 14th, 21 st and 28th day from the day of application to determine the control effects. Three pots were used for each treatment. The control effect was assessed by the formula described in TEST EXAMPLE 7 above. Further, phytotoxicity was observed visually on the 7th day after the application.
as §1, with “(B) An” for “(A) An”, “Example 3” for “Example 1”, “in diameter” for “in diametre”, “in Test” for “in TEST”

Apple = experiment: Phytotoxicity on various crops; assay type: in vivo; design: key: Symbol — indicates that no toxicity was observed; settings: 500 ppm sprayed; checked visually after 10 days
Method: (§2) An emulsifiable concentrate prepared as described in Formulation Example 2 was diluted with water to a concentration of 500 ppm based on the effective ingredient and sprayed sufficiently using a spray-gun onto various test plants. The plants were kept in a green house. After 10 days from the application phytotoxicity was checked visually. The test was replicated 3 times for each compound.

Beet = experiment: Phytotoxicity on various crops; assay type: in vivo; design: key: Symbol — indicates that no toxicity was observed; settings: 500 ppm sprayed; checked visually after 10 days
Method: as §2

Cabbage = experiment: Phytotoxicity on various crops; assay type: in vivo; design: key: Symbol — indicates that no toxicity was observed; settings: 500 ppm sprayed; checked visually after 10 days
Method: as §2

Cotton = experiment: Phytotoxicity on various crops; assay type: in vivo; design: key: Symbol — indicates that no toxicity was observed; settings: 500 ppm sprayed; checked visually after 10 days
Method: as §2

Cucumber = experiment: Phytotoxicity on various crops; assay type: in vivo; design: key: Symbol — indicates that no toxicity was observed; settings: 500 ppm sprayed; checked visually after 10 days
Method: as §2

Green Pepper = experiment: Phytotoxicity on various crops; assay type: in vivo; design: key: Symbol — indicates that no toxicity was observed; settings: 500 ppm sprayed; checked visually after 10 days
Method: as §2

Kidney Bean = experiment: Phytotoxicity on various crops; assay type: in vivo; design: key: Symbol — indicates that no toxicity was observed; settings: 500 ppm sprayed; checked visually after 10 days
Method: as §2

Rice = experiment: Phytotoxicity on various crops; assay type: in vivo; design: key: Symbol — indicates that no toxicity was observed; settings: 500 ppm sprayed; checked visually after 10 days
Method: as §2

Tea = experiment: Phytotoxicity on various crops; assay type: in vivo; design: key: Symbol — indicates that no toxicity was observed; settings: 500 ppm sprayed; checked visually after 10 days
Method: as §2

Tomato = experiment: Phytotoxicity on various crops; assay type: in vivo; design: key: Symbol — indicates that no toxicity was observed; settings: 500 ppm sprayed; checked visually after 10 days
Method: as §2

egg plant = experiment: Phytotoxicity on various crops; assay type: in vivo; design: key: Symbol — indicates that no toxicity was observed; settings: 500 ppm sprayed; checked visually after 10 days
Method: as §2

apple leaf miner = experiment: Insecticidal effect on apple leaf miner (sprayed apple seedling); assay type: in vivo, Lithocolletis ringoniella; settings: for mortality at 500 ppm: Phyllonorycter ringoniella, 336 h
Method: (A) A dilute water suspension of a wettable powder prepared as described in Formulation Example 5 was sufficiently sprayed using a spray-gun on a seedling of an apple tree planted in a bisque flower pot to which plant larvae of apple leaf miner just after hatching were parasitic. Thereafter the pots were placed in a green house. Fourteen days after the spraying, bores made by larvae were broken and percent mortality was assessed for all the leaves of each seedling. Three pots were used for each treatment.
(B) A dilute water suspension of a wettable powder prepared as described in Formulation Example 7 was sufficiently sprayed using a spray-gun on a seedling of an apple tree planted in a bisque flower pot to which plant larvae of apple leaf miner just after hatching were parasitic. Thereafter the pots were placed in a green house. Fourteen days after the spraying, bores made by larvae were broken and percent mortality was assessed for all the leaves of each seedling. Three pots were used for each treatment.

[2] = Table 1, 500 ppm, wettable powder as Formulation Example 5
[3] = Table 3, 500 ppm, emulsifiable concentrate as Formulation Example 1
[4] = Table 7, 100 ppm, emulsifiable concentrate as Formulation Example 1
[5] = egg plant seedling, Formulation Example 1
[6] = Table 4, 100 ppm, emulsifiable concentrate as Formulation Example 3
[7] = Table 8, 100 ppm, emulsifiable concentrate as Formulation Example 4

CCCCSP(=O)(OCC)Oc1ccc2c(c1)OC(C)=CC2(C)C (stereo not drawn) [Compound No. 5]
Percent Mortality (%) (rice stem borer; [2]): 100% | Percent Mortality (%) (tobacco cutworm; [3]): 100% | Percent Mortality (%) (diamond back moth; [4]): 100% | Control Effect (%) (carmine mites): 91.2% | Number of Living Mites after Application 7th Day (carmine mites): 0 | Number of Living Mites after Application 14th Day (carmine mites): 0 | Number of Living Mites after Application 21st Day (carmine mites): 16 | Number of Living Mites after Application 28th Day (carmine mites): 38 | Number of Living Mites after Application 7th Day [1, 5]: 0 | Number of Living Mites after Application 14th Day [1, 5]: 0 | Number of Living Mites after Application 21st Day [1, 5]: 9 | Number of Living Mites after Application 28th Day [1, 5]: 29 | Control Effect (%) ([1]; from mite counts on 7th, 14th, 21st and 28th day): 97.4% | Phytotoxicity: Apple (Apple): — | Phytotoxicity: Beet (Beet): — | Phytotoxicity: Cabbage (Cabbage): — | Phytotoxicity: Cotton (Cotton): — | Phytotoxicity: Cucumber (Cucumber): — | Phytotoxicity: Green Pepper (Green Pepper): — | Phytotoxicity: Kidney Bean (Kidney Bean): — | Phytotoxicity: Rice (Rice): — | Phytotoxicity: Tea (Tea): — | Phytotoxicity: Tomato (Tomato): — | Phytotoxicity: Egg Plant (egg plant): —

CCCSP(=S)(OCC)Oc1cccc2c1C(C)=CC(C)(C)O2 (stereo not drawn) [Compound No. 26]
Percent Mortality (%) (rice stem borer; Table 2, 100 ppm, wettable powder as Formulation Example 7): 100% | Percent Mortality (%) (tobacco cutworm; [6]): 100% | Percent Mortality (%) (diamond back moth; [7]): 96.7% | Phytotoxicity: Apple (Apple): — | Phytotoxicity: Beet (Beet): — | Phytotoxicity: Cabbage (Cabbage): — | Phytotoxicity: Cotton (Cotton): — | Phytotoxicity: Cucumber (Cucumber): — | Phytotoxicity: Green Pepper (Green Pepper): — | Phytotoxicity: Kidney Bean (Kidney Bean): — | Phytotoxicity: Rice (Rice): — | Phytotoxicity: Tea (Tea): — | Phytotoxicity: Tomato (Tomato): — | Phytotoxicity: Egg Plant (egg plant): —

COP(=O)(OC)OC=C(Cl)Cl [DDVP, dimethyl 2,2-dichlorovinyl dimethyl phosphate, reference compound]
Percent Mortality (%) (tobacco cutworm; [6]): 46.7% | Percent Mortality (%) (diamond back moth; [4]): 23.3% | Percent Mortality (%) (diamond back moth; Table 7, 500 ppm): 76.7% | Percent Mortality (%) (diamond back moth; [7]): 6.7% | Percent Mortality (%) (diamond back moth; Table 8, 500 ppm): 83.3%

CCOP(=S)(OCC)Oc1nc(Cl)c(Cl)cc1Cl [Dursban, 0,0-diethyl 0-(3,5,6-trichloro-2-pyridyl)phosphorothioate, reference compound]
mortality at 500 ppm (apple leaf miner; read-out: Percent Morality (%)): 29.4%

CCOC(=O)C(SP(=S)(OC)OC)c1ccccc1 (stereo not drawn) [Elsan, S-(α-ethoxy-carbonyl benzyl O,O-dimethyl phosphorodithioate, reference compound]
Percent Morality (%) (apple leaf miner; Table 10, 500 ppm, fourteen days after spraying, wettable powder as Formulation Example 5, 20160 min): 13.2%

COc1nn(CSP(=S)(OC)OC)c(=O)s1 [Supracide, O,O-dimethyl-S-[5-methoxy-1,3,4-thiadiazol-2(3H)-onyl(3)-methyl]dithiophosphate, reference compound]
mortality at 500 ppm (apple leaf miner; Table 11, 500 ppm, fourteen days after spraying, wettable powder as Formulation Example 7, read-out: Percent Mortality (%)): 72%

CCCSP(=O)(Oc1ccc2c(c1)OC(C)=CC2(C)C)OC(C)CC (stereo not drawn) [compound 15]
Percent Mortality (%) (rice stem borer; [2]): 100% | Percent Mortality (%) (tobacco cutworm; [3]): 100% | Phytotoxicity: Apple (Apple): — | Phytotoxicity: Beet (Beet): — | Phytotoxicity: Cabbage (Cabbage): — | Phytotoxicity: Cotton (Cotton): — | Phytotoxicity: Cucumber (Cucumber): — | Phytotoxicity: Green Pepper (Green Pepper): — | Phytotoxicity: Kidney Bean (Kidney Bean): — | Phytotoxicity: Rice (Rice): — | Phytotoxicity: Tea (Tea): — | Phytotoxicity: Tomato (Tomato): — | Phytotoxicity: Egg Plant (egg plant): —

O-isopropyl-S-isopropyl-O-(2,4,4-trimethyl-1,4-benzopyran-7-yl)phosphorothioate [Compound No. 7]
Percent Mortality (%) (rice stem borer; [2]): 100% | Percent Mortality (%) (tobacco cutworm; [3]): 100% | Phytotoxicity: Apple (Apple): — | Phytotoxicity: Beet (Beet): — | Phytotoxicity: Cabbage (Cabbage): — | Phytotoxicity: Cotton (Cotton): — | Phytotoxicity: Cucumber (Cucumber): — | Phytotoxicity: Green Pepper (Green Pepper): — | Phytotoxicity: Kidney Bean (Kidney Bean): — | Phytotoxicity: Rice (Rice): — | Phytotoxicity: Tea (Tea): — | Phytotoxicity: Tomato (Tomato): — | Phytotoxicity: Egg Plant (egg plant): —
